# Test results published in PMC7502707, “Characterization and validation of a preventative therapy for hypertrophic cardiomyopathy in a murine model of the disease” (Proceedings of the National Academy of Sciences of the …, 2020).
# Legend:
# BALB/c nude mice = settings: mouse, in vivo
# Method: Eight-week-old male BALB/c nude mice were used to assess in vivo cardiac uptake and bio-distribution of sulfo-Cyanine7-labeled AID(S)-TAT and AID-TAT (Cy7, W&J PharmaChem) using a CRi Maestro 2 multispectral imaging system (Cambridge Research and Instrumentation) based on previously described methods ([63]). All studies were performed in mice anesthetized with isoflurane (2 to 4%), followed by intraperitoneal injection of pentobarbitone sodium (240 mg/kg), as approved by the Animal Ethics Committee of The University of Western Australia in accordance with the 2013 Australian Code for the Care and Use of Animals for Scientific Purposes ([58]). Detailed methods are provided in SI Appendix.
# 50 ms, Molecular Probes, Eugene, Oregon) (5). Cells were incubated in calcium-free HBS (supplemented with 3 mM EGTA and 200 nM JC-1) for at least 3 h prior to measuring changes in Ψm. Sodium cyanide (NaCN, 40 mM, mitochondrial electron transport blocker) was added at the end of each experiment to collapse Ψm, confirming that the JC-1 signal was indicative of Ψm.
# Additionally, individual 580 nm and 535 nm wavelength signals were assessed in each experiment to determine whether the fluorescent indicator was accurately measuring Ψm. […] Ratiometric JC-1 or flavoprotein fluorescent signals were quantified by manually tracing myocytes and subtracting an equivalent background region […]
# wt and cTnI-G203S mice = assay: Toxicity parameters: terminal serum urea, creatinine, ALT, AST and body weight; assay type: in vivo, mouse
# Method: Mice were treated with 10 μM AID(S)-TAT or AID-TAT 3×/wk/5 wk (equaling 15 doses). BW was recorded prior to administration of each peptide dose, and reported as a percentage of day 1 BW. A 5 to 10% reduction in BW directed increased monitoring as recommended by The Animal Ethics Committee of The University of Western Australia in accordance with the 2008 Guidelines to Promote the Wellbeing of Animals Used for Scientific Purposes ([65]). Following completion of treatment regimen, mice were anesthetized and terminal blood collected. Serum was extracted and used to measure kidney and liver toxicity as previously described ([66]). Detailed methods are provided in SI Appendix.
# Echocardiographic measurement of left ventricular function were performed on mice under light methoxyflurane anesthesia using an i13L probe on a Vivid 7 Dimension ultrasound system (GE Healthcare, Little Chalfont, United Kingdom) as previously described (4, 7). Echocardiographic measurements were taken on M-mode in triplicate from separate mice at a sweep speed of 200 mm/s. Each n represents the average of quantitative measurements from wt or cTnI-G203S mice for each treatment group. Measurements of left ventricular end diastolic diameter (LVEDD), left ventricular end systolic diameter (LVESD), fractional shortening (FS), left ventricular posterior wall in diastole (LVDPW), left ventricular posterior wall in systole (LVSPW), interventricular septum in diastole (IVSD), interventricular septum in systole (IVSS) and end diastolic diameter (EDD) were made. FS was calculated by the formula [(LVEDD-LVESD)/EDD] x 100.
# Cell size was determined as previously described (16). […]
# To measure kidney toxicity, urea and creatinine concentration was assessed using QuantiChrom Urea and Creatinine assay kits respectively (BioAssay Systems, Hayward CA). To measure liver toxicity, alanine transaminase (ALT) and aspartate transaminase (AST) concentration was measured using Alanine Transaminase and Aspartate Transaminase assay kits respectively (BioAssay Systems, Hayward CA). […]
# [1] = terminal serum, 10 μM 3×/wk/5 wk
sequence,measurement,setting,value
QQLEEDLKGYLDWITQAE [AID-TAT],"Cy7 decay (clearance) in left or right kidney, or liver",BALB/c nude mice,no significant difference
same,body weight over the course of treatment,"wt and cTnI-G203S mice; 15 doses, % of day 1 BW",no significant reduction
same,kidney toxicity: serum urea and creatinine,wt and cTnI-G203S mice; [1],No significant alterations
same,liver toxicity: serum ALT and AST,wt and cTnI-G203S mice; [1],No significant alterations
